Series [1] deals with T1, Human IP6K1 (Homo sapiens, UniProt Q92551).
T1 construct: GST (N, cleaved yes); made in house; host or cells: C43 E. coli, pGEX-6P-2
As to the kind of experiment: IP6K1 kinetic assay (ADP-Glo Max, Michaelis-Menten). Type of series: biochemical. The settings on record: 400μM IP6, ATP 31.25μM to 2mM, 15ng IP6K1, 15 minutes. As to the method:
IP6K1 activity was measured using the ADP-Glo Max kit (Promega). […] Reactions were quenched with 5μL of Promega ADP-Glo reagent to deplete the remaining ATP at the corresponding time points and incubated for 1hr at room temperature in the dark. […] Luminescence was detected with a Tecan Infinite […] plate reader. The amount of ADP produced by IP6K1 was determined by correlating the observed luminescence to a luminescence signal standard curve generated from various concentrations of ADP. A new standard curve was generated for each concentration of ATP tested such that the total amount of nucleotides (ATP+ADP) at every point on the curve was equal to the concentration of ATP used in the experiment. Standard curves typically began with 100μM or 50μM ADP and were serially 2-fold diluted 8 times. […] Nonlinear regressions and curve fitting to the Michaelis-Menten equation were performed in GraphPad Prism 7. […] The ADP production at […] was measured. The initial reaction velocity (V0) was calculated and plotted with each ATP condition. GraphPad Prism 7 was used to run the non-linear regression and fit the data to the Michaelis-Menten equation. […] The Michaelis-Menten constants when IP6 is the varied substrate were unable to be determined.

The next series deals with IP6K1. Also on record: method as in PMID 8633060. The settings on record: 3H-PP-IP5 production with 3H-IP6 as substrate; read-out: Km of ATP for IP6K1; cited from earlier work.
Series [2] concerns the target T1, Human IP6K1. As to the kind of experiment: IP6K1 inhibition dose-response assay (ADP-Glo Max). In kind it is biochemical. The settings on record: for IC50: read-out: IC50 IP6K1.
Series [3] relates to enzymes involved in the detection steps of the kit. As to the kind of experiment: Counter-screen against the detection steps of the ADP-Glo Max kit (no enzyme, no IP6). In kind it is biochemical. The settings on record: 10μM compound, 25μM ADP and 975μM ATP. As to the method: The Sigma LOPAC was obtained as 10mM DMSO stock solutions from the Johns Hopkins ChemCore facility. Each compound was first diluted to 50μM and 25% DMSO in assay buffer. The inhibition assay was performed as described above with 1μL of compound and 4μL of kinase master mix so that the final compound concentration was 10μM in 5% DMSO. […] Hits were determined based by the Z score, which is calculated as Z = (Xi-Xavg)/Sx, where Xi is the raw measurement on the i^th compound, Xavg and Sx are the mean and the standard deviation, respectively, of all measurements within the plate. Hits identified from the screen were repeated in the assay in quadruplicate for confirmation. These confirmed hits were then tested to determine if they inhibited the enzymes involved in the detection steps of the kit. Possible interference of the compounds was assessed by measuring the degree to which they inhibited the signal produced by a 25μM ADP in the presence of 975μM ATP. This experiment was run as described above for the inhibition assays in the absence of enzyme and IP6.

Series [4] addresses T1, Human IP6K1. As to the kind of experiment: Inositol polyphosphate separation by PAGE (5PP-IP5 production by IP6K1). Type of series: biochemical. The settings on record: 10μM inhibitor, 1mM ATP, 250μM IP6, 60nM IP6K1, 2 hours, 37°C.
In the next series the test system is DIO mice. Also on record: method as in PMID 27689003. The settings on record: DIO model, mice treated with TNP; cited from earlier work.
The conditions of series [5]: cited from earlier work.
The conditions of series [6]: cited from earlier work. This is another data set of the same source.

Molecules are shown by their SMILES. “Also recorded” adds a separate entry of the source. Where two headings read alike, the source gives them in different places.

T1 sequence (Q92551 whole entry): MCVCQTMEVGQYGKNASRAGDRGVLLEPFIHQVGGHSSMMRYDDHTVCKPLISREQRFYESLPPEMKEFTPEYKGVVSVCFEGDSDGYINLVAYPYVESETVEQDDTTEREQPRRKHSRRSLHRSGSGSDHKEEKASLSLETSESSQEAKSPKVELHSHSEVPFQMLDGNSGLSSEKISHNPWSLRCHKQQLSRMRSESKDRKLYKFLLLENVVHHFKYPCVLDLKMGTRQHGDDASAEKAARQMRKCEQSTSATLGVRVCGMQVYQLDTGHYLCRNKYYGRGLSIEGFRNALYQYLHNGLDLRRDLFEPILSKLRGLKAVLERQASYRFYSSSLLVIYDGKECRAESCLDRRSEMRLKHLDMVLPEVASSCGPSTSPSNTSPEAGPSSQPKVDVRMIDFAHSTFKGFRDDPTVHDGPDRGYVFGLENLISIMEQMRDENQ

On to `Nc1ncnc2c1ncn2[C@@H]1O[C@H](COP(=O)(O)OP(=O)(O)OP(=O)(O)O)[C@@H](O)[C@H]1O` [ATP], for which, at Human IP6K1 [1], the Km stood at 382 ± 44 µM and the “Vmax for ATP” value was determined as 1116 ± 41 nmol/min/mg. Further, in the series on IP6K1, the Km is 1000 µM.
As for `O=[N+]([O-])c1ccc(CNc2nc(NCc3cccc(C(F)(F)F)c3)nc3nc[nH]c23)cc1` [TNP, N2-(m-trifluorobenzyl), N6-(p-nitrobenzyl)purine], the 50% inhibitory concentration (IC50) on Human IP6K1 [2] (50μM IP6, 300μM ATP, 60nM IP6K1, 15 minutes) is 24 ± 1.5 µM; on Human IP6K1 [2] (62.5μM ATP, 400μM IP6, 60nM IP6K1, 30 minutes, 37°C), 12 ± 1.1 µM; on Human IP6K1 [2] (100μM IP6, 300μM ATP, 60nM IP6K1, 15 minutes), 20 ± 4.5 µM; on Human IP6K1 [2] (200μM IP6, 300μM ATP, 60nM IP6K1, 15 minutes) it was 21 ± 1.8 µM; at Human IP6K1 [2] (250μM ATP, 400μM IP6, 60nM IP6K1, 30 minutes, 37°C) it was 16 ± 1.1 µM; at Human IP6K1 [2] (400μM IP6, 300μM ATP, 60nM IP6K1, 15 minutes), 9.5 ± 1.5 µM. Besides, at Human IP6K1 [2] (2mM ATP, 400μM IP6, 60nM IP6K1, 30 minutes, 37°C), the IC50 turned out to be 39 ± 1.1 µM. For the same compound, the “Mode of inhibition of IP6K1” value on Human IP6K1 [2] (from IC50 shift with ATP or IP6 concentration) is recorded as “ATP competitive inhibitor; also recorded: IP6 is not competitive with TNP”. Moreover, in series [3], the “Signal loss in counter-screen of detection steps” value is listed as “neither TNP nor 6-Hydroxy-DL-Dopa showed significant signal loss”. The “Inhibition of 5PP-IP5 production by IP6K1 (PAGE, Toluidine Blue)” value on Human IP6K1 [4] is on record as “inhibit 5PP-IP5 production in this experiment at 10μM albeit to a lesser degree”. Further, in the series with DIO mice, the “Performance in insulin and glucose tolerance tests” value was “better performance in insulin and glucose tolerance tests”. The Pharmacokinetic properties entry in series [5] is “poor pharmacokinetic properties”. The Brain penetration result in series [5] (in vivo) is recorded as “low brain penetration”. Further, the “Solubility in aqueous media” value in series [6] is recorded as “insolubility in aqueous media”.

The values above are taken from article PMC5706701, “Development of a homogenous high-throughput assay for inositol hexakisphosphate kinase 1 activity” (PLoS ONE, 2017).
